The nature of series [1]: Safety parameters by hematology measures. The class given is in vivo, Equus caballus (horse) and Equus ferus caballus (poney). Conditions: 1% (w/w) CBD topical, 4 weeks. Here is the method:
(§1) The application was made by hand (using a cotton) and a glove was used for massaging the product into the affected skin area. Each horse received at minimum 1 bottle of 100 ml on Day 1 and 1 Bottle on Day 14, administration was indicated to be daily. Larger volumes have been used for larger lesions.
(§2) Safety parameters were measured by hematology measures and serum amyloid A (SSA) measures and IBH lesion score was calculated as detailed in Fettelschoss-Gabriel et al., 2018, J Allergy Clin Immunol 142(4): 1194-1205 at the beginning and at the end of the study as a disease specific observation. […] Pruritus was scored from 1-5 for each skin area affected and was calculated taking into account 3 main factors: tail scratching; mane scratching and belly scratching on ground/floor. SUM Score Pruritus-Day 1: 6 Pruritus score was calculated for Day 1, Day 14, Day 28

Series [2] can be described thus: LC-MS/MS CBD dosing in blood/plasma after topical application. It is filed as in vivo, Equus caballus (horse) and Equus ferus caballus (poney).
In another series the target is CB2 receptors (Homo sapiens, UniProt P34972). Conditions: compared with THC; cited from earlier work.
The next series concerns IBH horse skin lesions. Kind of series: Topical CBD oil formulation on skin lesions of horses diagnosed with IBH (pruritus score, IBH lesion score). It is filed as in vivo, Equus caballus (horse) and Equus ferus caballus (poney). The note with it: 1% (w/w) CBD in sesame oil, topical once daily, 4 weeks. The procedure:
as §1, §2
Then, the mean was calculated. Main pruritus signs are: tail scratching, mane scratching, face scratching and sometimes rolling on the ground for belly scratching.

“Also recorded” adds a separate entry of the source.

CB2 receptors, sequence (P34972 whole entry): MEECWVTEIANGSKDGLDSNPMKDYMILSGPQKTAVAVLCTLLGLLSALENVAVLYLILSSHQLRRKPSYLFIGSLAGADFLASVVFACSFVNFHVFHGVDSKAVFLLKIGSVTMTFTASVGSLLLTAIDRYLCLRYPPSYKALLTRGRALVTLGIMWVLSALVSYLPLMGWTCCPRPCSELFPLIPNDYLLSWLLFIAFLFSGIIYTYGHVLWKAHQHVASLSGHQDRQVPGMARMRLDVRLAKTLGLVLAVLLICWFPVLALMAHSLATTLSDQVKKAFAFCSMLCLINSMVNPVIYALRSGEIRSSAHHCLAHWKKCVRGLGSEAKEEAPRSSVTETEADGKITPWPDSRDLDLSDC

As to `C=C(C)[C@@H]1CCC(C)=C[C@H]1c1c(O)cc(CCCCC)cc1O` [CBD, 2-[(1R,6R)-6-isopropenyl-3-methylcyclohex-2-en-1-yl]-5-pentylbenzene-1,3-diol], in series [1], the WBC count entry is “No particular trend” and the eosinophile count result is recorded as “No particular trend”. The “CBD concentration in plasma” value in series [2] (1% topical concentration, LC-MS/MS) is reported as “not found in detectable concentrations”. The systemic absorption result in series [2] (at 1% topical concentration) is on record as “negligible”. The “affinity for CB2 receptors” value on CB2 receptors was “very low affinity”. Also, the “IBH symptoms during treatment (IBH lesion score)” value with IBH horse skin lesions (11 animals with mild to moderate IBH) is reported as “clear decrease”. The “pruritus symptoms during treatment (pruritus score)” value in the series with IBH horse skin lesions (score Day 1, Day 14, Day 28) is on record as “reduce pruritus score; also recorded: clear decrease”.
